Experimental data from patent publication US20220087987A1, “A METHOD FOR TREATING SWI/SNF COMPLEX-DEFICIENT CANCERS COMPRISING GLUTATHIONE (GSH) METABOLIC PATHWAY INHIBITOR” (National Cancer Center, priority 2018, published 2022).
Structures can show the parent of a compound that is named as a salt. Where two headings read alike, the source gives them in different places. Peptide text beside a SMILES is read from it. * marks the point of attachment. Cbz = O=C(OCc1ccccc1)*

Legend:
[1] = Drug library screen, cell viability (CellTiter-Glo); type: cell-based, human; conditions: human
In short: (§1)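 ARID1A-WT and ARID1A-KO HCT116 cells screened against the library; viability read after 5 days by CellTiter-Glo luminescence, expressed relative to DMSO-treated cells. Hits: KO viability below 40% with WT viability above 80%.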

ARID1A-KO HCT116 cells = experiment: as above; type: cell-based, human; conditions: Homo sapiens, HCT-116, 120 h, read-out: Cell viability, KO
In short: as §1

[2] = HCT116 ARID1A-WT, 10 μM for 5 days, relative to cells treated with solvent (DMSO), read-out: Cell viability, WT
[3] = HCT116 ARID1A-KO, 10 μM for 5 days, relative to cells treated with solvent (DMSO)

SMILES	viability at 5 days, 10 μM [1, 2]	viability at 10 µM (ARID1A-KO HCT116 cells; [3])	other results
CNC(=O)c1ccc(N2C(=S)N(c3ccc(C#N)c(C(F)(F)F)c3)C(=O)C2(C)C)cc1F [MDV3100]	88.8%	94.9%	
CC(C)C[C@@H](C=O)NC(=O)[C@H](CC(C)C)NC(=O)[C@H](CC(C)C)NC(=O)OCc1ccccc1 [MG-132] (Cbz-Leu-Leu-Leu-aldehyde)		2.45%	viability [1, 2]: 3.45%
NC(=O)c1cccc2cn(-c3ccc([C@@H]4CCCNC4)cc3)nc12 [MK-4827 (Niraparib), Niraparib]	29.3%	28.7%	
COc1cc(Nc2ncc3c(n2)-c2ccc(Cl)cc2C(c2c(F)cccc2OC)=NC3)ccc1C(=O)O [MLN8237]	36.8%	39.1%	
CN(Cc1cnc2nc(N)nc(N)c2n1)c1ccc(C(=O)N[C@@H](CCC(=O)O)C(=O)O)cc1 [Methotrexate]	43%	43.9%	
CC#C[C@]1(O)CC[C@H]2[C@@H]3CCC4=CC(=O)CCC4=C3[C@@H](c3ccc(N(C)C)cc3)C[C@@]21C [Mifepristone]	95.9%	85.3%	
CCOC(=O)C1=C(C)NC(=S)NC1c1cccc(O)c1 (centres unmarked) [Monastrol]	102%	104%	
CC[C@@]1([C@@H]2O[C@@H]([C@H]3O[C@@](O)(CO)[C@H](C)C[C@@H]3C)C[C@@H]2C)CC[C@H]([C@]2(C)CC[C@]3(C[C@H](O)[C@@H](C)[C@@H]([C@@H](C)[C@@H](OC)[C@H](C)C(=O)O)O3)O2)O1 [Monensin]			viability at 5 days, 10 μM [1]: 3.45%; viability at 10 µM (ARID1A-KO HCT116 cells): 3.95%
CC(=O)N[C@@H](CS)C(=O)O [N-Acetyl-L-cysteine]	186%	139%	
O=C(O)c1ccccc1Nc1ccccc1 [N-phenylanthranilic acid]	101%	118%	
CS(=O)(=O)Nc1ccc([N+](=O)[O-])cc1OC1CCCCC1 [NS-398]	177%		viability at 10 µM (ARID1A-KO HCT116 cells): 142%
CCn1cc(C(=O)O)c(=O)c2ccc(C)nc21 [Nalidixic acid]	102%	97.5%	
CO[C@@H]1C[C@@H](C[C@H]2CC[C@H](C)[C@H]([C@@H](C)C(=O)O)O2)O[C@]2(O[C@](C)([C@H]3CC[C@@](C)([C@@H]4O[C@@H]([C@H]5O[C@@](O)(CO)[C@H](C)C[C@@H]5C)C[C@@H]4C)O3)C[C@H]2C)[C@@H]1C [Nigericin]			viability at 5 days, 10 μM [1]: 3.47%; viability at 10 µM (ARID1A-KO HCT116 cells): 4.01%
COC(=O)Nc1nc2ccc(C(=O)c3cccs3)cc2[nH]1 [Nocodazole]	6.51%		viability at 10 µM (ARID1A-KO HCT116 cells): 7.15%
CC(Cc1ccc(O)c(O)c1)C(C)Cc1ccc(O)c(O)c1 (centres unmarked) [Nordihydroguaiaretic acid (NDGA), Nordihydroguaiaretic acid]	101%	112%	
C[C@]1(O)C[C@@H](c2nc(-c3ccc4ccc(-c5ccccc5)nc4c3)c3c(N)nccn32)C1 [OSI-906]	59.1%	79.1%	
NCC(=O)Nc1ccc(-n2nc(C(F)(F)F)cc2-c2ccc3c(ccc4ccccc43)c2)cc1 [OSU-03012]	91.9%	105%	
O=C(c1cc(Cc2n[nH]c(=O)c3ccccc23)ccc1F)N1CCN(C(=O)C2CC2)CC1 [Olaparib]	20.9%	19.5%	
CC[C@H]1/C=C/C=C/C[C@@H](C)[C@H](O)[C@@](C)(O)C(=O)[C@@H](C)[C@H](O)[C@@H](C)C(=O)[C@@H](C)[C@H](O)[C@@H](C)/C=C/C(=O)O[C@@H]2[C@H](C)[C@H](CC1)O[C@]1(CC[C@H](C)[C@H](C[C@@H](C)O)O1)[C@H]2C [Oligomycin]	13.6%	21.7%	
Cn1cnc2c(NCc3ccccc3)nc(NCCO)nc21 [Olomoucine]	173%		viability at 10 µM (ARID1A-KO HCT116 cells): 122%
C[C@@H]1O[C@@H](O[C@H]2C[C@@H](O)[C@]3(CO)[C@H]4[C@H](O)C[C@]5(C)[C@@H](C6=CC(=O)OC6)CC[C@]5(O)[C@@H]4CC[C@]3(O)C2)[C@H](O)[C@H](O)[C@H]1O [Ouabain]		5.12%	viability [1, 2]: 4.81%
CC(=O)O[C@H]1C(=O)[C@@]2(C)[C@H]([C@H](OC(=O)c3ccccc3)[C@]3(O)C[C@H](OC(=O)[C@H](O)[C@@H](NC(=O)c4ccccc4)c4ccccc4)C(C)=C1C3(C)C)[C@]1(OC(C)=O)CO[C@@H]1C[C@@H]2O [Paclitaxel]	4.91%	6.42%	
NNCCc1ccccc1 [Phenelzine]	101%	119%	
C[C@@H]1C[C@H]2O[C@@H]2/C=C\C=C\C(=O)Cc2c(Cl)c(O)cc(O)c2C(=O)O1 [Radicicol]	7.12%	5.65%	
CO[C@H]1C[C@@H]2CC[C@@H](C)[C@@](O)(O2)C(=O)C(=O)N2CCCC[C@H]2C(=O)O[C@H]([C@H](C)C[C@@H]2CC[C@@H](O)[C@H](OC)C2)CC(=O)[C@H](C)/C=C(\C)[C@@H](O)[C@@H](OC)C(=O)[C@H](C)C[C@H](C)/C=C/C=C/C=C/1C [Rapamycin]	169%	125%	
C=C(C)[C@H]1Cc2c(ccc3c2O[C@@H]2COc4cc(OC)c(OC)cc4[C@@H]2C3=O)O1 [Rotenone]		6.99%	viability [1, 2]: 5.52%

SMILES	viability at 5 days, 10 μM [1, 2]	viability at 10 µM (ARID1A-KO HCT116 cells; [3])	other results
N#CC[C@H](C1CCCC1)n1cc(-c2ncnc3[nH]ccc23)cn1 [Ruxolitinib]	58.1%	86.1%	
Oc1c2ccccc2c2c3c(cccc13)N=N2 [SP600125]	172%	105%	
C[n+]1cc2c3c(ccc2c2ccc4cc5c(cc4c21)OCO5)OCO3 [Sanguinarine]		2.09%	viability [1, 2]: 1.83%
O=C(CCCCCN1C(=O)c2cccc3cccc(c23)C1=O)NO [Scriptaid]	6.95%	5.74%	
O=C([O-])c1ccccc1O.[Na+] [Sodium salicylate]			viability [1]: 177%; viability at 10 µM (ARID1A-KO HCT116 cells): 125%
CN[C@@H]1C[C@H]2O[C@@](C)([C@@H]1OC)n1c3ccccc3c3c4c(c5c6ccccc6n2c5c31)C(=O)NC4 [Staurosporine]		4.14%	viability [1, 2]: 5.22%
CSc1ccc(/C=C2/C(C)=C(CC(=O)O)c3cc(F)ccc32)cc1 [Sulindac sulfide]	195%	140%	
O[C@H]1[C@H]2[C@H](O)CCCN2C[C@H]1O [Swainsonine]		110%	viability [1, 2]: 115%
CC1=C(O)C(=O)[C@@H]2O[C@@H]2C1=O [Terreic acid]		90.5%	viability [1, 2]: 88.9%
C/C=C(/C)C(=O)O[C@H]1C(C)=C2[C@H]([C@@H]1OC(=O)CCCCCCC)[C@@](C)(OC(C)=O)C[C@H](OC(=O)CCC)[C@@]1(O)[C@H]2OC(=O)[C@@]1(C)O [Thapsigargin]			viability at 5 days, 10 μM [1]: 2.63%; viability at 10 µM (ARID1A-KO HCT116 cells): 2.88%
Cn1c(=O)c2[nH]cnc2n(C)c1=O [Theophylline]	203%	140%	
Cc1c(C)c2c(c(C)c1O)CCC(C)(COc1ccc(CC3SC(=O)NC3=O)cc1)O2 (centres unmarked) [Troglitazone]	101%	94.7%	
N#CC(=C(/N)Sc1ccccc1N)/C(C#N)=C(\N)Sc1ccccc1N [U0126]			viability [1]: 80.5%; viability at 10 µM (ARID1A-KO HCT116 cells): 68.3%
COc1cc2c(NC3CCN(C(C)C)CC3)nc(C3CCCCC3)nc2cc1OCCCN1CCCC1 [UNC0638]	2.6%	3.8%	
CC(C)[C@@H]1NC(=O)[C@H](C)OC(=O)[C@@H](C(C)C)NC(=O)[C@@H](C(C)C)OC(=O)[C@H](C(C)C)NC(=O)[C@H](C)OC(=O)[C@@H](C(C)C)NC(=O)[C@@H](C(C)C)OC(=O)[C@H](C(C)C)NC(=O)[C@H](C)OC(=O)[C@@H](C(C)C)NC(=O)[C@@H](C(C)C)OC1=O [Valinomycin]		4.17%	viability [1, 2]: 3.65%
COc1cc2c(Nc3ccc(Br)cc3F)ncnc2cc1OCC1CCN(C)CC1 [Vandetanib]	14.1%	28.9%	
CCCS(=O)(=O)Nc1ccc(F)c(C(=O)c2c[nH]c3ncc(-c4ccc(Cl)cc4)cc23)c1F [Vemurafenib]	103%	108%	
CC[C@]1(O)C[C@@H]2CN(CCc3c([nH]c4ccccc34)[C@@](C(=O)OC)(c3cc4c(cc3OC)N(C)[C@H]3[C@@](O)(C(=O)OC)[C@H](OC(C)=O)[C@]5(CC)C=CCN6CC[C@]43[C@@H]65)C2)C1 [Vinblastine sulfate]	2.73%	4.49%	
CS(=O)(=O)c1ccc(C(=O)Nc2ccc(Cl)c(-c3ccccn3)c2)c(Cl)c1 [Vismodegib]	88.7%	109%	
C[C@H](NC(=O)/C(C#N)=C/c1cccc(Br)n1)c1ccccc1 [WP1066]	15.3%	20%	
COC[C@H]1OC(=O)c2coc3c2[C@@]1(C)C1=C(C3=O)[C@@H]2CCC(=O)[C@@]2(C)C[C@H]1OC(C)=O [Wortmannin]	181%	116%	
Oc1nc(-c2ccc(C(F)(F)F)cc2)nc2c1CSCC2 [XAV939]	87%	111%	
COc1cc(O)c(CC=C(C)C)c(O)c1C(=O)/C=C/c1ccc(O)cc1 [Xanthohumol]	104%	112%	
C[C@@H](N)[C@H]1CC[C@H](C(=O)Nc2ccncc2)CC1 [Y27632]	160%		viability at 10 µM (ARID1A-KO HCT116 cells): 98.6%
COCCn1c2c([n+](Cc3cnccn3)c1C)C(=O)c1ccccc1C2=O [YM155]	2.67%	3.24%	
CCCOc1ccccc1-c1nc2nn[nH]c2c(=O)[nH]1 [Zaprinast]	93.5%	82.6%	
